Test results taken from patent US12139520B2 (priority 2020, dated 2024).
Numbered stars: 1 amine (or outer) side, 2 acyl side, 3 side chain; on linkers, the order of the positions; unused ones are H or OH. Bridge positions count the residues as written; N and C are the ends. Peptide text beside a SMILES is read from it. * marks the point of attachment. C20 diacid = O=C(O)CCCCCCCCCCCCCCCCCCC(=O)*; γGlu = O=C(O)[C@H](CCC(=O)[*:2])N[*:1]

These molecules were tested against T1, hAMY3 receptor (Homo sapiens, UniProt O60896+P30988) (assay: cAMP assay for in vitro receptor activation, hAMY3-R). Details: cAMP assay, hAMY3 receptor; read-out: hAMY3R EC50.
T1 sequence (P30988 25-474): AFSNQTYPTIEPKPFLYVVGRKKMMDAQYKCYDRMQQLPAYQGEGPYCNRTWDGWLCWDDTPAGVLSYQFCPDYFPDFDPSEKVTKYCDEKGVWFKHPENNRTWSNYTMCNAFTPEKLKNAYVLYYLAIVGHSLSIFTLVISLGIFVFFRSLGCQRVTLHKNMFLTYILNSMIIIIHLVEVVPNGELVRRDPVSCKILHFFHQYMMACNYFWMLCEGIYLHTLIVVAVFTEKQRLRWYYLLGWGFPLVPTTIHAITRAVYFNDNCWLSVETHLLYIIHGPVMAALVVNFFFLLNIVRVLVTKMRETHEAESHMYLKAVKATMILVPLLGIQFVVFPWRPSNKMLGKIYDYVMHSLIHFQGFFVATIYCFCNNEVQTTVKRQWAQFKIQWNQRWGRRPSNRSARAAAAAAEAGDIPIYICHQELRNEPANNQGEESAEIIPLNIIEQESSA
T1 sequence (O60896 24-148 partner): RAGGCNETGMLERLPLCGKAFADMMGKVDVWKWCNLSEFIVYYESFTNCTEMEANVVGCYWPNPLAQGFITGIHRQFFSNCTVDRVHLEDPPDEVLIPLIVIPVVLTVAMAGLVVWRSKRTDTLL
Format: cell-based
Method in brief: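 Read-out is TR-FRET cAMP signal, recorded one hour after reagent addition, following 30 min room-temperature stimulation of stable hAMY3 cells with graded compound doses in casein/IBMX (0.5 mM) buffer.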
In the case of `CC(C)C[C@H](NC(=O)[C@H](CCCNC(=N)N)NC(=O)[C@H](CCC(N)=O)NC(=O)[C@@H](NC(=O)[C@@H](NC(=O)[C@@H]1CSSC[C@H](NC(=O)CN)C(=O)N[C@@H](CCCNC(=N)N)C(=O)N[C@@H](Cc2ccccc2)C(=O)N[C@@H](C)C(=O)N[C@@H]([C@@H](C)O)C(=O)N1)[C@@H](C)O)C(C)C)C(=O)N[C@@H](C)C(=O)N[C@@H](Cc1c[nH]cn1)C(=O)N[C@@H](Cc1ccccc1)C(=O)N[C@@H](CC(C)C)C(=O)N[C@@H](Cc1ccc(O)cc1)C(=O)N[C@@H](CCC(N)=O)C(=O)N[C@@H](Cc1ccccc1)C(=O)N[C@H](C(=O)N[C@@H](CC(=O)O)C(=O)N[C@@H](CCCCN)C(=O)N[C@@H](CC(=O)O)C(=O)N[C@@H](CCCCN)C(=O)N[C@@H](CC(=O)O)C(=O)N[C@@H](CC(N)=O)C(=O)N[C@H](C(=O)N[C@@H](C)C(=O)N1CCC[C@H]1C(=O)N[C@@H](CCCNC(=N)N)C(=O)N[C@H](C(=O)N[C@@H](CCCCN)C(=O)N[C@H](C(=O)NCC(=O)N1CCC[C@H]1C(=O)N[C@@H](CCC(N)=O)C(=O)NCC(=O)N[C@@H](Cc1ccc(O)cc1)C(N)=O)C(C)C)[C@@H](C)O)C(C)C)[C@@H](C)O` [compound 377] (H-GCRFATCTVQRLAHFLYQFTDKDKDNVAPRTKVGPQGY-NH2; disulfide 2-7; N-terminus assumed), the EC50 is reported as 0.024 nM. `CC[C@H](C)[C@H](NC(=O)[C@H](CCC(N)=O)NC(=O)[C@H](Cc1c[nH]cn1)NC(=O)[C@H](C)NC(=O)[C@H](CC(C)C)NC(=O)[C@H](CCCNC(=N)N)NC(=O)[C@H](CCC(N)=O)NC(=O)[C@@H](NC(=O)[C@@H](NC(=O)[C@@H]1CSSC[C@H](NC(=O)[C@H](CCCCN)NC(=O)CC[C@H](NC(=O)CCCCCCCCCCCCCCCCCCC(=O)O)C(=O)O)C(=O)N[C@@H](CC(N)=O)C(=O)N[C@@H](Cc2ccccc2)C(=O)N[C@@H](C)C(=O)N[C@@H]([C@@H](C)O)C(=O)N1)[C@@H](C)O)C(C)C)C(=O)N[C@@H](Cc1ccc(O)cc1)C(=O)N[C@@H](CCC(N)=O)C(=O)N[C@@H](Cc1ccccc1)C(=O)N[C@H](C(=O)N[C@@H](CC(=O)O)C(=O)N[C@@H](CCCCN)C(=O)N[C@@H](CC(=O)O)C(=O)N[C@@H](CCCCN)C(=O)N[C@@H](CC(=O)O)C(=O)N[C@@H](CC(N)=O)C(=O)N[C@H](C(=O)N[C@@H](C)C(=O)N1CCC[C@H]1C(=O)N[C@@H](CCCNC(=N)N)C(=O)N[C@H](C(=O)N[C@@H](CCCCN)C(=O)N[C@H](C(=O)NCC(=O)N[C@@H](CO)C(=O)N[C@@H](CC(N)=O)C(=O)NCC(=O)N[C@@H](Cc1ccc(O)cc1)C(N)=O)C(C)C)[C@@H](C)O)C(C)C)[C@@H](C)O` [compound 378] ({C20 diacid-γGlu}-KCNFATCTVQRLAHQIYQFTDKDKDNVAPRTKVGSNGY-NH2; disulfide 2-7) showed an EC50 of 0.027 nM. For `CC[C@H](C)[C@H](NC(=O)[C@H](CC(N)=O)NC(=O)[C@@H](NC(=O)[C@H](CCCNC(=N)N)NC(=O)[C@@H]1CCCN1C(=O)[C@H](C)NC(=O)[C@@H](NC(=O)[C@H](CC(N)=O)NC(=O)[C@H](CC(=O)O)NC(=O)[C@H](CCCCN)NC(=O)[C@H](CC(=O)O)NC(=O)[C@H](CCCCN)NC(=O)[C@H](CC(=O)O)NC(=O)[C@@H](NC(=O)[C@H](Cc1ccccc1)NC(=O)[C@H](CCC(N)=O)NC(=O)[C@H](Cc1ccc(O)cc1)NC(=O)[C@@H](NC(=O)[C@H](CCC(N)=O)NC(=O)[C@H](Cc1c[nH]cn1)NC(=O)[C@H](C)NC(=O)[C@H](CC(C)C)NC(=O)[C@H](CCCNC(=N)N)NC(=O)[C@H](CCC(N)=O)NC(=O)[C@@H](NC(=O)[C@@H](NC(=O)[C@@H]1CSSC[C@H](NC(=O)CN)C(=O)N[C@@H](CCCNC(=N)N)C(=O)N[C@@H](Cc2ccccc2)C(=O)NCC(=O)N[C@@H]([C@@H](C)O)C(=O)N1)[C@@H](C)O)C(C)C)[C@@H](C)CC)[C@@H](C)O)C(C)C)[C@@H](C)O)C(=O)NCC(=O)N1CCC[C@H]1C(=O)N[C@@H](CCC(N)=O)C(=O)NCC(=O)N[C@@H](Cc1ccc(O)cc1)C(N)=O` [compound 379] (H-GCRFGTCTVQRLAHQIYQFTDKDKDNVAPRTNIGPQGY-NH2; disulfide 2-7), the EC50 was 0.029 nM.
